In ChEMBL document CHEMBL3885881, “DrugMatrix”:

Species: Rattus norvegicus
Assay: DrugMatrix - Regimen: Daily Repeat
Type: toxicity, organism-based, Sprague-Dawley
Design: regimen Daily Repeat, gender Male, age 6-8 weeks
Details: in vivo, po, route oral GAVAGE, vehicle .5 % CMC; for ABSOLUTE BASOPHIL / ABSOLUTE EOSINOPHIL / ABSOLUTE LYMPHOCYTE / ABSOLUTE MONOCYTE / ABSOLUTE SEGMENTED NEUTROPHIL / BASOPHIL / EOSINOPHIL / ERYTHROCYTE COUNT / HEMATOCRIT / HEMOGLOBIN / LEUKOCYTE COUNT / LYMPHOCYTE / MEAN CORPUSCULAR HEMOGLOBIN / MEAN CORPUSCULAR HEMOGLOBIN CONCENTRATION / MEAN CORPUSCULAR VOLUME / MONOCYTE / NEUTROPHIL / NUCLEATED RED BLOOD CELLS / PLATELET COUNT: tissue Blood; for ALANINE AMINOTRANSFERASE / ALBUMIN / ALKALINE PHOSPHATASE / ASPARTATE AMINOTRANSFERASE / BLOOD UREA NITROGEN / CARBON DIOXIDE / CHLORIDE / CHOLESTEROL / CREATINE PHOSPHOKINASE / CREATININE / GLUCOSE / LACTATE DEHYDROGENASE / LIPASE / PHOSPHORUS / POTASSIUM / SODIUM / TOTAL BILIRUBIN / TOTAL PROTEIN / URIC ACID: tissue Plasma
[1] = 0 mg/kg, 72 h, dose level Control, time 3 day
[2] = 0 mg/kg, 120 h, dose level Control, time 5 day
[3] = 2500 mg/kg, 72 h, dose level High, time 3 day

CN1CCC[C@@H]1CCO[C@](C)(c1ccccc1)c1ccc(Cl)cc1 [CLEMASTINE]
ABSOLUTE BASOPHIL [1]: 0 CELLS/uL | ABSOLUTE EOSINOPHIL [1]: 0 CELLS/uL | ABSOLUTE LYMPHOCYTE [1]: 12191.17 CELLS/uL | ABSOLUTE MONOCYTE [1]: 183.17 CELLS/uL | ABSOLUTE SEGMENTED NEUTROPHIL [1]: 1192.33 CELLS/uL | BASOPHIL [1]: 0% | EOSINOPHIL [1]: 0% | ERYTHROCYTE COUNT [1]: 5.51 x10E6/uL | HEMATOCRIT [1]: 35.45% | HEMOGLOBIN [1]: 13.82 G/DL | LEUKOCYTE COUNT [1]: 13.57 x10E3/uL | LYMPHOCYTE [1]: 89.83% | MEAN CORPUSCULAR HEMOGLOBIN [1]: 25.1 pg | MEAN CORPUSCULAR HEMOGLOBIN CONCENTRATION [1]: 38.98 G/DL | MEAN CORPUSCULAR VOLUME [1]: 64.42 fL | MONOCYTE [1]: 1.33% | NEUTROPHIL [1]: 8.83% | NUCLEATED RED BLOOD CELLS [1]: 0 /100WBC | PLATELET COUNT [1]: 1118.17 x10E3/uL | ALANINE AMINOTRANSFERASE [1]: 55 u/L | ALBUMIN [1]: 4.15 G/DL | ALKALINE PHOSPHATASE [1]: 449.5 u/L | ASPARTATE AMINOTRANSFERASE [1]: 112.83 u/L | BLOOD UREA NITROGEN [1]: 17.33 mg/dL | CARBON DIOXIDE [1]: 29.5 mmol/L | CHLORIDE [1]: 101 MEQ/L | CHOLESTEROL [1]: 70 mg/dL | CREATINE PHOSPHOKINASE [1]: 1325.83 u/L | CREATININE [1]: 0.18 mg/dL | GLUCOSE [1]: 171.5 mg/dL | LACTATE DEHYDROGENASE [1]: 386 u/L | LIPASE [1]: 10 u/L | PHOSPHORUS [1]: 11.57 mg/dL | POTASSIUM [1]: 6.21 MEQ/L | SODIUM [1]: 141.65 MEQ/L | TOTAL BILIRUBIN [1]: 0.15 mg/dL | TOTAL PROTEIN [1]: 5.75 G/DL | URIC ACID [1]: 1.28 mg/dL | ABSOLUTE BASOPHIL [2]: 0 CELLS/uL | ABSOLUTE EOSINOPHIL [2]: 138.17 CELLS/uL | ABSOLUTE LYMPHOCYTE [2]: 13283.17 CELLS/uL | ABSOLUTE MONOCYTE [2]: 303.83 CELLS/uL | ABSOLUTE SEGMENTED NEUTROPHIL [2]: 1308.17 CELLS/uL | BASOPHIL [2]: 0% | EOSINOPHIL [2]: 1% | ERYTHROCYTE COUNT [2]: 5.32 x10E6/uL | HEMATOCRIT [2]: 33.8% | HEMOGLOBIN [2]: 13.63 G/DL | LEUKOCYTE COUNT [2]: 15.03 x10E3/uL | LYMPHOCYTE [2]: 88.33% | MEAN CORPUSCULAR HEMOGLOBIN [2]: 25.68 pg | MEAN CORPUSCULAR HEMOGLOBIN CONCENTRATION [2]: 40.35 G/DL | MEAN CORPUSCULAR VOLUME [2]: 63.67 fL | MONOCYTE [2]: 1.83% | NEUTROPHIL [2]: 8.83% | NUCLEATED RED BLOOD CELLS [2]: 0 /100WBC | PLATELET COUNT [2]: 1097.5 x10E3/uL | ALANINE AMINOTRANSFERASE [2]: 54.5 u/L | ALBUMIN [2]: 4.27 G/DL | ALKALINE PHOSPHATASE [2]: 337 u/L | ASPARTATE AMINOTRANSFERASE [2]: 94.67 u/L | BLOOD UREA NITROGEN [2]: 17 mg/dL | CARBON DIOXIDE [2]: 28.33 mmol/L | CHLORIDE [2]: 101.5 MEQ/L | CHOLESTEROL [2]: 71.33 mg/dL | CREATINE PHOSPHOKINASE [2]: 628.17 u/L | CREATININE [2]: 0.19 mg/dL | GLUCOSE [2]: 177.83 mg/dL | LACTATE DEHYDROGENASE [2]: 500.5 u/L | LIPASE [2]: 9.5 u/L | PHOSPHORUS [2]: 12.3 mg/dL | POTASSIUM [2]: 5.63 MEQ/L | SODIUM [2]: 143.03 MEQ/L | TOTAL BILIRUBIN [2]: 0.2 mg/dL | TOTAL PROTEIN [2]: 6.02 G/DL | URIC ACID [2]: 1.5 mg/dL | ABSOLUTE BASOPHIL [3]: 0 CELLS/uL | ABSOLUTE EOSINOPHIL [3]: 0 CELLS/uL | ABSOLUTE LYMPHOCYTE [3]: 7950 CELLS/uL | ABSOLUTE MONOCYTE [3]: 225 CELLS/uL | ABSOLUTE SEGMENTED NEUTROPHIL [3]: 1825 CELLS/uL | BASOPHIL [3]: 0% | EOSINOPHIL [3]: 0% | ERYTHROCYTE COUNT [3]: 6.97 x10E6/uL | HEMATOCRIT [3]: 42.9% | HEMOGLOBIN [3]: 16.67 G/DL | LEUKOCYTE COUNT [3]: 10 x10E3/uL | LYMPHOCYTE [3]: 77% | MEAN CORPUSCULAR HEMOGLOBIN [3]: 23.97 pg | MEAN CORPUSCULAR HEMOGLOBIN CONCENTRATION [3]: 38.87 G/DL | MEAN CORPUSCULAR VOLUME [3]: 61.6 fL | MONOCYTE [3]: 2.33% | NEUTROPHIL [3]: 20.67% | NUCLEATED RED BLOOD CELLS [3]: 0 /100WBC | PLATELET COUNT [3]: 1501 x10E3/uL | ALANINE AMINOTRANSFERASE [3]: 133 u/L | ALBUMIN [3]: 4.1 G/DL | ALKALINE PHOSPHATASE [3]: 344 u/L | ASPARTATE AMINOTRANSFERASE [3]: 444 u/L | BLOOD UREA NITROGEN [3]: 70.67 mg/dL | CARBON DIOXIDE [3]: 23 mmol/L | CHLORIDE [3]: 102.5 MEQ/L | CHOLESTEROL [3]: 44.33 mg/dL | CREATINE PHOSPHOKINASE [3]: 1897.33 u/L | CREATININE [3]: 0.69 mg/dL | GLUCOSE [3]: 201 mg/dL | LACTATE DEHYDROGENASE [3]: 1757 u/L | LIPASE [3]: 14.33 u/L | PHOSPHORUS [3]: 18 mg/dL | POTASSIUM [3]: 6.26 MEQ/L | SODIUM [3]: 145.75 MEQ/L | TOTAL BILIRUBIN [3]: 0.73 mg/dL | TOTAL PROTEIN [3]: 5.93 G/DL | URIC ACID [3]: 2.83 mg/dL
